The values that follow come from patent US20250129021A1, “SMALL MOLECULE PROTEIN SYNTHESIS MODULATORS” (Interdict Bio, Inc., priority 2023, published 2025).

Each structure is given as a SMILES string.

Format in all cases: biochemical
The subject of one assay is CCNE1. Description: In vitro transcription-translation (IVTT) assay, CCNE1 reporter. The note with it: HeLa S3 lysate, 2 hrs at 30° C. Here is the method: Each preparation takes 8 cell pellets (4 ml packed volume each, approximately 1.0×10^9 cells per pellet). Thaw cell pellets from −80° C. on ice for 90 mins. Lay pellets horizontally on top of the ice and rotate every 30 mins to ensure even thawing. Once thawed, add 4 mL of cold lysis buffer to each pellet, and using a serological pipet, gently pipet up and down to break up clumps. Incubate resuspended cells in ice for an additional 30 mins (plunged into ice). During 30 min incubation, rinse and RNase-zap (Ambion) glass dounces (use loose pestle “A”), gently dry and place on ice until needed. Prepare RNase-free Eppendorf tubes for spinning and for batch storage. Add batch labels to 1.5-1.7 mL RNase-free microcentrifuge tubes (labeling scheme below). Each batch will have an extra 1.5-1.7 mL RNase-free microcentrifuge tube for 40 μL of lysate, label the top of this tube (labeling scheme below). After 30 min incubation, transfer all 8 mL of cell pellet to dounce. Cell lysis is complete after douncing 100 times. Aliquot cell lysis into 1.5-1.7 mL temporary-microcentrifuge tubes. Place tubes in centrifuge with “fins” out, and spin at 1,200×g for 5 mins. After the first spin use a 1 mL pipet to resuspend each tube and repeat spin. This acts as an additional lysis step, is more vigorous and increases lysate yield. During second spin get liquid N2 and a fresh conical tube on ice. After spin is complete, transfer supernatant (lysate) from microcentrifuge tubes into the 50 mL conical tube and keep on ice. Repeat steps 10-14 for all other cell pellets until completed. Once all cell lysate has been transferred to the 50 mL conical tube pipet to mix so the solution is homogenous. Transfer 1 mL of lysate into batch-labeled microcentrifuge tubes and flash freeze in liquid nitrogen. Be sure to pipet up and down to mix throughout transfer step. Place all tubes in the […] for long-term storage.
In vitro transcription-translation assay setup: Each assay includes a master mix containing lysate and shared components, a 96-well plate containing compound titrations for testing, a 96-well DNA plate with reporter constructs to be tested, 96-well skirted PCR plates, and 96-well flat-bottom, black, fluorescent assay plates. Reaction materials setup: (A) Master mix—15 mL conical tube (3 mL of HeLa S3 Lysate described above; 0.6 mL of ThermoFisher Accessory Proteins (#88882); 1.2 ml of ThermoFisher Reaction Mix (#88882); 0.54 mL of nuclease-free Water); (B) 96-Well Master Mix+Compound Plate (Half-log dilutions (30 μM−0.1 μM) of 4 compounds of interest are prepared in 100% DMSO); 96-Well DNA Plate (Five DNA constructs are plated into single columns within the plate. Row 1 of the column contains nuclease free H2O, all other wells contain 110 ng/μL plasmid DNA). Reactions are started by mixing 155 μL of master mix and 3.5 μL of compound serial dilutions, then 9.1 μL of master mix+compound mixture is aliquoted across 5 96-well plates. Reactions begin with final addition of 2 μL of DNA for a 11.1 μL reaction volume in each well. The entire plate is sealed, and incubated for 2 hrs at 30° C. After 2 hrs, quench the assay using 45 μL of PBS, and transfer 50 μL to a flat-bottom black microplate Quantify the sfGFP and mCherry signals from each well on each plate, taking 3 reads of each plate, and perform data analysis below.
In vitro transcription-translation assay data analysis: Each plate is read three times in channels for both sfGFP and mCherry signals. The average signal across these 3 reads is then calculated for further analysis. Control wells containing no DNA reporter are subtracted from reporter wells in the same column to remove auto-fluorescence of the lysate. Then, the ratio of sfGFP/mCherry is calculated per well, and these ratios are averaged across the triplicate experiments on the same plate. Finally, the ratio of each titration concentration is normalized to the no drug control to create the normalized stalling metric. […]

A further assay has as its system CCNTB1. Description: In vitro transcription-translation (IVTT) assay, CCNTB1 reporter. The following applies: HeLa S3 lysate, 2 hrs at 30° C. The method in brief:
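HeLa S3 lysate-based coupled transcription-translation reactions with reporter plasmids, compounds in half-log dilutions (30 μM−0.1 μM, in DMSO), 2 h at 30° C. sfGFP/mCherry ratio, corrected for no-DNA background, normalized to no-drug control and fitted for IC50.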

In a further assay the test system is CCND1. Description: In vitro transcription-translation (IVTT) assay, CCND1 reporter. The note with it: IVTT, HeLa S3 lysate, 2 hrs at 30° C. The method in brief:
(§1)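 Reporter: mCherry, P2A, then 3×FLAG-target peptide-sfGFP fusion, IRES-initiated; HeLa S3 lysate IVTT; cpd dilutions 30 μM−0.1 μM half-log in 100% DMSO (dilution-plate conc); DNA added last; 2 h, 30° C; PBS quench.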

The test system of the next assay is MYC. Description: In vitro transcription-translation (IVTT) assay, MYC reporter. The note with it: IVTT assay, HeLa S3 lysate, MYC reporter, normalized sfGFP/mCherry ratio; half-log dilutions 30 μM-0.1 μM, 2 hrs at 30° C. The method in brief:
as §1

For the molecule `O=C(NC[C@H]1CCNC1)O[C@@H]1[C@@H](O)CN[C@@H]1Cc1ccc(Cl)cc1` [V188188, (2R,3S,4S)-2-[(4-chlorophenyl)methyl]-4-hydroxypyrrolidin-3-yl N-[(3S)-pyrrolidin-3-ylmethyl]carbamate], the IC50 – broadly, the concentration needed to halve the response being measured – is under 10 µM with CCNE1, under 10 µM in the assay with CCNTB1, over 30 µM in the assay with CCND1 and over 30 µM with MYC.

For the molecule `O=C(NCc1ccc(F)cc1)O[C@@H]1[C@@H](O)CN[C@@H]1Cc1ccc(Cl)cc1` [V188271, (2R,3S,4S)-2-[(4-chlorophenyl)methyl]-4-hydroxypyrrolidin-3-yl N-[(4-fluorophenyl)methyl]carbamate], the half-inhibitory concentration (IC50) in the assay on CCNE1 is under 10 µM; in the assay with CCNTB1, under 10 µM; with CCND1, 10 to 20 µM; with MYC, 10 to 20 µM.

On to `O=C(NCc1ccc(OC(F)(F)F)cc1)O[C@@H]1[C@@H](O)CN[C@@H]1Cc1ccc(Cl)cc1` [V188286, (2R,3S,4S)-2-[(4-chlorophenyl)methyl]-4-hydroxypyrrolidin-3-yl N-{[4-(trifluoromethoxy)phenyl]methyl}carbamate], for which the IC50 in the assay on CCNE1, in the assay on CCNTB1, with CCND1 and in the assay on MYC was over 30 µM in each case.

Regarding `O=C(NCc1cc(F)cc(F)c1)O[C@@H]1[C@@H](O)CN[C@@H]1Cc1ccc(Cl)cc1` [V188272, (2R,3S,4S)-2-[(4-chlorophenyl)methyl]-4-hydroxypyrrolidin-3-yl N-[(3,5-difluorophenyl)methyl]carbamate], the IC50 is under 10 µM in the assay with CCNE1, under 10 µM in the assay with CCNTB1, 20 to 30 µM in the assay on CCND1 and 10 to 20 µM with MYC.

Consider `COc1ccc(C[C@H]2NC[C@H](O)[C@H]2OC(=O)NCc2cc(N3CCCC3)nc(N3CCCC3)c2)cc1` [V188228, (2R,3S,4S)-4-hydroxy-2-[(4-methoxyphenyl)methyl]pyrrolidin-3-yl N-{[2,6-bis(pyrrolidin-1-yl)pyridin-4-yl]methyl}carbamate], for which the half-maximal inhibitory concentration (IC50) in the assay on CCNE1, with CCNTB1, in the assay on CCND1 and with MYC was over 30 µM throughout.

For the molecule `COc1ccc(C[C@H]2NC[C@H](O)[C@H]2OC(=O)NCCc2ccc(S(=O)(=O)F)cc2)cc1` [V188175, (2R,3S,4S)-4-hydroxy-2-[(4-methoxyphenyl)methyl]pyrrolidin-3-yl N-{2-[4-(fluorosulfonyl)phenyl]ethyl}carbamate], the IC50 with CCNE1 was 10 to 20 µM; with CCNTB1, under 10 µM; in the assay on CCND1, over 30 µM; in the assay with MYC, 10 to 20 µM.

`COc1ccc(C[C@H]2NC[C@H](O)[C@H]2OC(=O)NCCn2ccnc2[N+](=O)[O-])cc1` [V188085, (2R,3S,4S)-4-hydroxy-2-[(4-methoxyphenyl)methyl]pyrrolidin-3-yl N-[2-(2-nitroimidazol-1-yl)ethyl]carbamate]: the IC50 was under 10 µM with CCNE1, under 10 µM with CCNTB1, 20 to 30 µM in the assay with CCND1 and 10 to 20 µM in the assay with MYC.

As for `COc1ccc(C[C@H]2NC[C@H](O)[C@H]2OC(=O)NC[C@H]2C[C@@H](N)C2)cc1` [V188147, (2R,3S,4S)-4-hydroxy-2-[(4-methoxyphenyl)methyl]pyrrolidin-3-yl N-{[(1s,3s)-3-aminocyclobutyl]methyl}carbamate], the IC50 in the assay with CCNE1 was under 10 µM; with CCNTB1, under 10 µM; in the assay on CCND1, 10 to 20 µM; with MYC it was under 10 µM.

Turning to `COc1ccc(C[C@H]2NC[C@H](O)[C@H]2OC(=O)NCCC23CCCN2CCC3)cc1` [V188135, (2R,3S,4S)-4-hydroxy-2-[(4-methoxyphenyl)methyl]pyrrolidin-3-yl N-[2-(hexahydropyrrolizin-7a-yl)ethyl]carbamate], the IC50 in the assay with CCNE1 lay within 20 to 30 µM; with CCNTB1, 10 to 20 µM; with CCND1, 20 to 30 µM; in the assay on MYC, 10 to 20 µM.

Regarding `COc1ccc(C[C@H]2NC[C@H](O)[C@H]2OC(=O)NCc2ccc(S(N)(=O)=O)cc2)cc1` [V188304, (2R,3S,4S)-4-hydroxy-2-[(4-methoxyphenyl)methyl]pyrrolidin-3-yl N-[(4-sulfamoylphenyl)methyl]carbamate], the IC50 with CCNE1, in the assay on CCNTB1, with CCND1 and with MYC was under 10 µM each time.

For `O=C(NCC1CC1)O[C@@H]1[C@@H](O)CN[C@@H]1Cc1ccc(Cl)cc1` [V188275, (2R,3S,4S)-2-[(4-chlorophenyl)methyl]-4-hydroxypyrrolidin-3-yl N-(cyclopropylmethyl)carbamate], the IC50 in the assay on CCNE1 was under 10 µM; with CCNTB1, under 10 µM; in the assay with CCND1, 10 to 20 µM; in the assay on MYC, under 10 µM.

`COc1ccc(C[C@H]2NC[C@H](O)[C@H]2OC(=O)NCC2CCS(=O)(=O)C2)cc1` (stereo partly drawn) [V188154, (2R,3S,4S)-4-hydroxy-2-[(4-methoxyphenyl)methyl]pyrrolidin-3-yl N-[(1,1-dioxo-1lambda6-thiolan-3-yl)methyl]carbamate]: the IC50 in the assay on CCNE1, with CCNTB1, in the assay on CCND1 and in the assay with MYC was under 10 µM each time.

For `COc1ccc(C[C@H]2NC[C@H](O)[C@H]2OC(=O)NCc2ccnc(C(F)(F)F)c2)cc1` [V188050, (2R,3S,4S)-4-hydroxy-2-[(4-methoxyphenyl)methyl]pyrrolidin-3-yl N-{[2-(trifluoromethyl)pyridin-4-yl]methyl}carbamate], the IC50 in the assay on CCNE1, with CCNTB1, in the assay on CCND1 and in the assay with MYC was under 10 µM each time.

On to `COc1ccc(C[C@H]2NC[C@H](O)[C@H]2OC(=O)NCCNc2cc[nH]n2)cc1` [V187944, (2R,3S,4S)-4-hydroxy-2-[(4-methoxyphenyl)methyl]pyrrolidin-3-yl N-[2-(1H-pyrazol-3-ylamino)ethyl]carbamate], for which the IC50 was 10 to 20 µM in the assay with CCNE1, under 10 µM with CCNTB1, 20 to 30 µM in the assay on CCND1 and 10 to 20 µM in the assay on MYC.

In the case of `COc1ccc(C[C@H]2NC[C@H](O)[C@H]2OC(=O)NCC(F)(F)CO)cc1` [V188164, (2R,3S,4S)-4-hydroxy-2-[(4-methoxyphenyl)methyl]pyrrolidin-3-yl N-(2,2-difluoro-3-hydroxypropyl)carbamate], the IC50 in the assay on CCNE1 is 20 to 30 µM; in the assay with CCNTB1 it was 10 to 20 µM; with CCND1 it was over 30 µM; in the assay with MYC, over 30 µM.

Take `COc1ccc(C[C@H]2NC[C@H](O)[C@H]2OC(=O)NCc2cc(N3CCC3)nc(N3CCC3)c2)cc1` [V188227, (2R,3S,4S)-4-hydroxy-2-[(4-methoxyphenyl)methyl]pyrrolidin-3-yl N-{[2,6-bis(azetidin-1-yl)pyridin-4-yl]methyl}carbamate]: the IC50 with CCNE1 was 20 to 30 µM; with CCNTB1 it was under 10 µM; in the assay on CCND1, 20 to 30 µM; with MYC, 20 to 30 µM.
